Experiments:
MDR1 (P-gp) = experiment: MDCK-MDR1 permeability assay, blood-brain-barrier penetration potential; conditions: dog, MDCK-MDR1, pH 7.4, MDCK-MDR1 Efflux Ratio
Description: (§1) Experimental Procedure: MDR1-MDCK cell monolayers are grown to confluence on collagen-coated, microporous membranes in 12-well assay plates. The permeability assay buffer is Hanks' balanced salt solution containing 10 mM HEPES and 15 mM glucose at a pH of 7.4. The buffer in the receiver chamber also contained 1% bovine serum albumin. The dosing solution concentration is 5 μM of test article in the assay buffer. Cell monolayers are dosed on the apical side (A-to-B) or basolateral side (B-to-A) and incubated at 37° C. with 5% CO2 in a humidified incubator. Samples are taken from the donor and receiver chambers at 120 minutes. Each determination is performed in duplicate. The flux of lucifer yellow is also measured post-experimentally for each monolayer to ensure no damage was inflicted to the cell monolayers during the flux period. All samples are assayed by LC-MS/MS using electrospray ionization.
(§2) Analytical Method: Liquid Chromatography • Column: Waters ACQUITY UPLC BEH Phenyl 30×2.1 mm, 1.7 μm • M.P. Buffer: 25 mM ammonium formate buffer, pH 3.5 • Aqueous Reservoir (A): 90% water, 10% buffer • Organic Reservoir (B): 90% acetonitrile, 10% buffer • Flow Rate: 0.7 mL/minute • Gradient Program:
(§3) • Total Run Time: 1.00 minute • Autosampler: 2 μL injection volume • Wash1: water/methanol/2-propanol:1/1/1; with 0.2% formic acid • Wash2: 0.1% formic acid in water • Brain Penetration • Potential Classification: A-B Papp≥3.0 and Efflux Ratio<3.0: High • A-B Papp≥3.0 and 10>Efflux Ratio≥3.0: Moderate • A-B Papp≥3.0 and Efflux Ratio≥10: Low • A-B Papp<3.0: Low

SMN protein = SMN protein assay (MSD) in SMA patient fibroblasts (GM03813); assay type: cell-based, human
Procedure, shortened: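 Absolute SMN protein measured by Mesoscale Discovery assay in lysates, calibrated per plate with SMN standards (1–19.5 μg/ml). Cells: GM03813 SMA fibroblasts, 7000/well, 48 h compound exposure at doses of 2.5 μM down to 0.6 nM.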

SMN FL and SMN Δ7 = experiment: Quantitative splicing assay (SMN) in SMA patient fibroblasts (GM03813); assay type: cell-based; conditions: Homo sapiens, Fibroblast; class symbol; read-out: SMN2 Splicing FL EC50 (nM)*
Description: Spinal muscular atrophy (SMA) patient fibroblasts (GM03813, Coriell) are plated in 96-well plates at 50,000 cells/well. […] Treated cells are lysed and cDNA synthesized using the Fast Advanced Cells-to-Ct kit (Thermofisher A35378) according to the manufacturer's instructions. 2 μL of each cDNA are used in qPCR reactions. […] Reactions are run in a Quant Studio 6 qPCR instrument with default settings.

[1] = system: MDR1-MDCK cell monolayers; conditions: dog, MDCK-MDR1, 120 min, 5 μM, pH 7.4
Description: as §1, §2, §3

MDR1 = experiment: in vitro; conditions: dog; for Papp A→B at 120 min, 5 μM: MDCK-MDR1, pH 7.4, MDCK-MDR1: Papp A-B (10^−6, cm/s); for Papp B→A at 120 min, 5 μM: MDCK-MDR1, pH 7.4, MDCK-MDR1: Papp B-A (10^−6, cm/s)
Description: as §1, §2, §3

Structure (SMILES) | efflux ratio at 120 min, 5 μM (MDR1 (P-gp)) | EC50 (SMN protein) | EC50 (SMN FL and SMN Δ7) | MDCK-MDR1: % Recov A-B (%) [1] | MDCK-MDR1: % Recov B-A (%) [1] | Papp A→B at 120 min, 5 μM (MDR1) | Papp B→A at 120 min, 5 μM (MDR1)
CN(c1cnc(-c2ccc(-c3cn[nH]c3)cc2O)cn1)[C@@H]1CC2COC[C@H](N2)[C@@H]1F (single isomer, unassigned) [Compound 72E1] | 7 | 501 to 10000 nM | 501 to 10000 nM | 90% | 112% | 8.21 ×10⁻⁶ cm/s | 60.9 ×10⁻⁶ cm/s
CN(c1cnc(-c2ccc(-c3cn[nH]c3)cc2O)cn1)[C@H]1C[C@@H]2COCC(N2)[C@H]1F (single isomer, unassigned) [Compound 72E2] | 8 | 101 to 500 nM | 501 to 10000 nM | 96% | 113% | 9.82 ×10⁻⁶ cm/s | 82.5 ×10⁻⁶ cm/s
COc1cc(-c2ccc(-c3cnc(N(C)[C@H]4C[C@@H]5COCC(N5)[C@H]4F)cn3)c(O)c2)cnn1 (single isomer, unassigned) [Compound 74E2] | 18 | 501 to 10000 nM | 501 to 10000 nM | 92% | 104% | 3.6 ×10⁻⁶ cm/s | 63.2 ×10⁻⁶ cm/s
CN(c1cnc(-c2ccc(C3=CC(=O)NC3)cc2O)cn1)[C@H]1C[C@@H]2CCC(N2)[C@H]1F (single isomer, unassigned) [Compound 78E2] | 55 | 16 to 50 nM | 501 to 10000 nM | 94% | 82% | 0.56 ×10⁻⁶ cm/s | 30.7 ×10⁻⁶ cm/s
COc1cc(-c2ccc(-c3cnc(N(C)[C@@H]4CC5COC[C@H](N5)[C@@H]4F)cn3)c(O)c2)ccn1 (single isomer, unassigned) [Compound 81E1] | 1 | 501 to 10000 nM | 501 to 10000 nM | 28% | 47% | 2.69 ×10⁻⁶ cm/s | 3.08 ×10⁻⁶ cm/s
COc1cc(-c2ccc(-c3cnc(N(C)[C@H]4C[C@@H]5COCC(N5)[C@H]4F)cn3)c(O)c2)ccn1 (single isomer, unassigned) [Compound 81E2] | 2 | 501 to 10000 nM | 101 to 500 nM | 42% | 77% | 2 ×10⁻⁶ cm/s | 3.4 ×10⁻⁶ cm/s
CN(c1cnc(-c2ccc(-c3ccn(C)c(=O)c3)cc2O)cn1)[C@@H]1CC2CCC[C@H](N2)[C@@H]1F (single isomer, unassigned) [Compound 83E1] | 52 | 101 to 500 nM | 101 to 500 nM | 78% | 81% | 0.94 ×10⁻⁶ cm/s | 48.4 ×10⁻⁶ cm/s
CN(c1cnc(-c2ccc(-c3ccn(C)c(=O)c3)cc2O)cn1)[C@H]1C[C@@H]2CCCC(N2)[C@H]1F (single isomer, unassigned) [Compound 83E2] | 36 | 16 to 50 nM | 101 to 500 nM | 106% | 118% | 1.28 ×10⁻⁶ cm/s | 45 ×10⁻⁶ cm/s
CN(c1cnc(-c2ccc(-c3ccn(C)c(=O)c3)cc2O)cn1)[C@@H]1C[C@H]2CCC[C@H](N2)[C@@H]1F [Compound 5E1, 4-(4-(5-(((1S,2S,3R,5R)-2-fluoro-9-azabicyclo[3.3.1]nonan-3-yl)(methyl)amino)pyrazin-2-yl)-3-hydroxyphenyl)-1-methylpyridin-2(1H)-one] | 25 | 0.01 to 15 nM | 51 to 100 nM | 84% | 90% | 2.04 ×10⁻⁶ cm/s | 50.3 ×10⁻⁶ cm/s
CN(c1cnc(-c2ccc(-c3cn[nH]c3)cc2O)cn1)[C@H]1C[C@]2(C)CCC[C@@](C)(N2)[C@H]1F [Compound 23E2, 2-(5-(((1R,2S,3S,5S)-2-fluoro-1,5-dimethyl-9-azabicyclo[3.3.1]nonan-3-yl)(methyl)amino)pyrazin-2-yl)-5-(1H-pyrazol-4-yl)phenol] | 2 | 0.01 to 15 nM | 16 to 50 nM | 39% | 65% | 5.71 ×10⁻⁶ cm/s | 13.6 ×10⁻⁶ cm/s
COc1cc(-c2ccc(-c3cnc(N(C)[C@@H]4C[C@@]5(C)CC[C@](C)(N5)[C@@H]4F)cn3)c(O)c2)cnn1 [Compound 25E1, 2-(5-(((1S,2R,3R,5R)-2-fluoro-1,5-dimethyl-8-azabicyclo[3.2.1]octan-3-yl)(methyl)amino)pyrazin-2-yl)-5-(6-methoxypyridazin-4-yl)phenol] | 7 | 501 to 10000 nM | 501 to 10000 nM | 45% | 64% | 5.6 ×10⁻⁶ cm/s | 39.6 ×10⁻⁶ cm/s
COc1cc(-c2ccc(-c3cnc(N(C)[C@H]4C[C@]5(C)CC[C@@](C)(N5)[C@H]4F)cn3)c(O)c2)cnn1 [Compound 25E2, 2-(5-(((1R,2S,3S,5S)-2-fluoro-1,5-dimethyl-8-azabicyclo[3.2.1]octan-3-yl)(methyl)amino)pyrazin-2-yl)-5-(6-methoxypyridazin4-yl)phenol] | 5 | 101 to 500 nM | 501 to 10000 nM | 42% | 70% | 5.01 ×10⁻⁶ cm/s | 22.9 ×10⁻⁶ cm/s
CN(c1cnc(-c2cc(F)c(-c3cn[nH]c3)cc2O)cn1)[C@@H]1C[C@@]2(C)CC[C@](C)(N2)[C@@H]1F [Compound 57E1, 4-fluoro-2-(5-(((1S,2R,3R,5R)-2-fluoro-1,5-dimethyl-8-azabicyclo[3.2.1]octan-3-yl)(methyl)amino)pyrazin-2-yl)-5-(1H-pyrazol-4-yl)phenol] | 3 | 16 to 50 nM | 101 to 500 nM | 37% | 59% | 5.9 ×10⁻⁶ cm/s | 18.8 ×10⁻⁶ cm/s
CN(c1cnc(-c2cc(F)c(-c3cn[nH]c3)cc2O)cn1)[C@H]1C[C@]2(C)CC[C@@](C)(N2)[C@H]1F [Compound 57E2, 4-fluoro-2-(5-(((1R,2S,3S,5S)-2-fluoro-1,5-dimethyl-8-azabicyclo[3.2.1]octan-3-yl)(methyl)amino)pyrazin-2-yl)-5-(1H-pyrazol-4-yl)phenol] | 3 | 0.01 to 15 nM | 501 to 10000 nM | 35% | 64% | 5.8 ×10⁻⁶ cm/s | 20 ×10⁻⁶ cm/s
CN(c1cnc(-c2cc(F)c(-c3cnn(C)c3)cc2O)cn1)[C@H]1C[C@]2(C)CC[C@@](C)(N2)[C@H]1F [Compound 58E2, 4-fluoro-2-(5-(((1R,2S,3S,5S)-2-fluoro-1,5-dimethyl-8-azabicyclo[3.2.1]octan-3-yl)(methyl)amino)pyrazin-2-yl)-5-(1-methyl-1H-pyrazol-4-yl)phenol] | 3 | 0.01 to 15 nM | 101 to 500 nM | 32% | 69% | 5.98 ×10⁻⁶ cm/s | 16.4 ×10⁻⁶ cm/s
CNC(=O)/C=C/c1cc(O)c(-c2cnc(N(C)[C@H]3C[C@]4(C)CC[C@@](C)(N4)[C@H]3F)cn2)cc1F [Compound 61E2, (E)-3-(2-fluoro-4-(5-(((1R,2S,3S,5S)-2-fluoro-1,5-dimethyl-8-azabicyclo[3.2.1]octan-3-yl)(methyl)amino)pyrazin-2-yl)-5-hydroxyphenyl)-N-methylacrylamide] | 54 | 0.01 to 15 nM | 501 to 10000 nM | 86% | 89% | 0.77 ×10⁻⁶ cm/s | 41.9 ×10⁻⁶ cm/s

— US11964971B2, “Methods and compositions for modulating splicing” (Skyhawk Therapeutics, Inc., priority 2019, dated 2024)
